In ChEMBL document CHEMBL3272031, “Inhibition of dihydrofolate reductase. Structure-activity correlations of quinazolines” (J Med Chem, 1976):

Target: Dihydrofolate reductase (Rattus norvegicus) (UniProt Q920D2)

log(1/C)	Compound
7.48	Cc1c(NC(=O)CCc2ccc(Cl)cc2)ccc2nc(N)nc(N)c12
6.64	Nc1nc(S)c2cc(Sc3ccc4ccccc4c3)ccc2n1
4.35	Nc1nc(N)c2c([S+]([O-])c3ccc4ccccc4c3)cccc2n1 (stereo unspecified)
4.82	Nc1nc(N)c2c(S(=O)(=O)c3ccc4ccccc4c3)cccc2n1
5	Nc1nc(N)c2cc(C=O)ccc2n1
7	Nc1nc(N)c2cc(CNC(=O)c3ccc4ccccc4c3)ccc2n1
5.52	Nc1nc(S)nc2ccc(Sc3ccc4ccccc4c3)cc12
8.15	Nc1nc(N)c2cc(Sc3ccc4ccccc4c3)ccc2n1
7.12	Nc1nc(O)c2cc(S(=O)(=O)c3ccc(Cl)c(Cl)c3)ccc2n1
5.05	Sc1nc(S)c2cc(Sc3ccc4ccccc4c3)ccc2n1
7.33	Nc1nc(N)c2cc(NC(=O)CCc3ccc(Cl)cc3)ccc2n1
7.49	Cc1c(NC(=O)Cc2ccc(Br)cc2)ccc2nc(N)nc(N)c12
7.44	Nc1nc(N)c2c(Cl)c(NC(=O)CCc3ccc(Cl)cc3)ccc2n1
5	Oc1nc(S)nc2ccc(Sc3ccc4ccccc4c3)cc12
7	Nc1nc(N)c2cc(CNC(=O)c3ccc(Cl)c(Cl)c3)ccc2n1
5.07	O=c1[nH]c(=O)c2cc(Sc3ccc4ccccc4c3)ccc2[nH]1
5.24	O=c1[nH]c(=S)c2cc(Sc3ccc4ccccc4c3)ccc2[nH]1
6.59	Nc1nc(N)c2cc(CNC(=O)c3cccc(C(F)(F)F)c3)ccc2n1
5.77	Nc1nc(O)nc2ccc(Sc3ccc4ccccc4c3)cc12
6.11	CC(=O)Nc1nc(O)c2cc(S(=O)(=O)c3ccc4ccccc4c3)ccc2n1
4.8	Cc1cccc2nc(N)nc(O)c12
7.64	Nc1nc(N)c2cc(NC(=O)Cc3ccc(Cl)cc3)ccc2n1

log(1/C)	Compound
7.6	Nc1nc(S)c2cc(S(=O)(=O)c3ccc4ccccc4c3)ccc2n1
4.02	Nc1nc(O)nc2ccccc12
6.92	Nc1nc(N)c2c(Sc3ccc4ccccc4c3)cccc2n1
7.62	Nc1nc(N)c2c(Cl)c(NC(=O)Cc3ccc(Cl)c(Cl)c3)ccc2n1
6.8	Nc1nc(N)c2c(Sc3ccc(Cl)c(Cl)c3)cccc2n1
7.77	Cc1c(NC(=O)Cc2ccc(Cl)c(Cl)c2)ccc2nc(N)nc(N)c12
5.28	Nc1nc(N)c2c(/C=C/c3ccc4ccccc4c3)cccc2n1
7.47	Cc1c(NC(=O)Cc2cccc(Br)c2)ccc2nc(N)nc(N)c12
6.92	Nc1nc(O)c2cc(Sc3ccc(Cl)c(Cl)c3)ccc2n1
4.26	CC1CCc2nc(N)nc(O)c2C1 (stereo unspecified)
3.09	Nc1ncnc2ccccc12
7.64	Nc1nc(N)c2c(Cl)c(NC(=O)Cc3cccc(C(F)(F)F)c3)ccc2n1
6.25	Nc1nc(N)c2c(Cl)cccc2n1
8.4	Nc1nc(N)c2cc(S(=O)(=O)c3ccc4ccccc4c3)ccc2n1
6.18	Nc1nc(N)c2c(Cl)c(N)ccc2n1
4.68	Nc1ncnc2ccc(Sc3ccc4ccccc4c3)cc12
7.96	Nc1nc(N)c2cc(Sc3ccc(Cl)c(Cl)c3)ccc2n1
7	Nc1nc(N)c2c(Cl)c(Br)ccc2n1
7.74	Nc1nc(N)c2cc(NCc3ccc(Cl)c(Cl)c3)ccc2n1
3.72	Nc1nc(S)nc2ccccc12
4.57	Nc1ccc2nc(N)nc(N)c2c1
4.35	Nc1nc(O)c2ccc(C(F)(F)F)cc2n1

log(1/C)	Compound
7.23	Cc1c(NC(=O)Cc2cccc(C(F)(F)F)c2)ccc2nc(N)nc(N)c12
7.96	Nc1nc(O)c2cc(S(=O)(=O)c3ccc4ccccc4c3)ccc2n1
8.12	Nc1nc(N)c2c(Cl)c(NC(=O)Cc3cccc(Br)c3)ccc2n1
4.37	Nc1nc(S)c2ccccc2n1
5.13	Nc1nc(N)c2c(n1)CCCC2
4.44	Cc1ccc2nc(N)nc(O)c2c1
7.64	Nc1nc(N)c2c(Cl)c(NC(=O)COc3ccc(Cl)c(Cl)c3)ccc2n1
8.3	Nc1nc(N)c2c(Cl)c(NC(=O)Cc3ccc4ccccc4c3)ccc2n1
7.7	Nc1nc(N)c2c(CCc3ccc4ccccc4c3)cccc2n1
4.24	Nc1nc(N)c2c(S(=O)(=O)c3ccc(Cl)c(Cl)c3)cccc2n1
5.4	Nc1nc(N)c2cc(Cl)ccc2n1
7.35	Nc1nc(O)c2cc(Sc3ccc4ccccc4c3)ccc2n1
7.82	Cc1c(NC(=O)COc2ccc3ccccc3c2)ccc2nc(N)nc(N)c12
5.03	NCc1ccc2nc(N)nc(N)c2c1
7.38	Nc1nc(O)c2cc([S+]([O-])c3ccc4ccccc4c3)ccc2n1 (stereo unspecified)
7.92	Nc1nc(N)c2c(Cl)c(NC(=O)Cc3ccc(Cl)cc3)ccc2n1
6.09	Cc1cccc2nc(N)nc(N)c12
3.62	O=c1[nH]cnc2ccccc12
8.27	Cc1c(NC(=O)CSc2ccc3ccccc3c2)ccc2nc(N)nc(N)c12
7.77	CC(C(=O)Nc1ccc2nc(N)nc(N)c2c1Cl)c1ccccc1 (stereo unspecified)
8.38	Cc1c(NC(=O)Cc2ccc3ccccc3c2)ccc2nc(N)nc(N)c12
5.47	Nc1ncnc2ccc(S(=O)(=O)c3ccc4ccccc4c3)cc12

log(1/C)	Compound
5.66	Cc1ccc2nc(N)nc(N)c2c1
7.7	Nc1nc(N)c2c(CSc3ccc(Cl)cc3)cccc2n1
7.02	Nc1nc(N)c2cc(NC(=O)Cc3cccc(C(F)(F)F)c3)ccc2n1
4.28	CC(=O)Nc1nc(O)c2ccccc2n1
4.82	Nc1ncnc2ccc([S+]([O-])c3ccc4ccccc4c3)cc12 (stereo unspecified)
7.51	Nc1nc(N)c2cc(NC(=O)Cc3ccc(Cl)c(Cl)c3)ccc2n1
7.85	Nc1nc(N)c2c(Cl)c(NC(=O)COc3ccc4ccccc4c3)ccc2n1
8.05	Nc1nc(N)c2cc(S(=O)(=O)c3ccc(Cl)c(Cl)c3)ccc2n1
6.15	Nc1nc(O)c2c(Sc3ccc4ccccc4c3)cccc2n1
2.26	c1ccc2ncncc2c1
7.68	Cc1c(NC(=O)C(Sc2ccc3ccccc3c2)C(C)C)ccc2nc(N)nc(N)c12 (stereo unspecified)
4.26	Nc1nc(N)c2c([S+]([O-])c3ccc(Cl)c(Cl)c3)cccc2n1 (stereo unspecified)
8.3	Nc1nc(N)c2cc(NC(=O)Cc3ccc4ccccc4c3)ccc2n1
4.31	Nc1nc2ccccc2c(=O)[nH]1
3.96	Nc1nc(O)c2c(n1)CCCC2
4.85	Nc1nc(O)c2c(S(=O)(=O)c3ccc4ccccc4c3)cccc2n1
6.52	Nc1nc(N)c2c(/C=C\c3ccc4ccccc4c3)cccc2n1
8.15	Nc1nc(N)c2cc([S+]([O-])c3ccc4ccccc4c3)ccc2n1 (stereo unspecified)
4.66	Nc1nc(O)c2c(Cl)cccc2n1
7.44	Nc1nc(N)c2cc(Sc3cccc(C(F)(F)F)c3)ccc2n1
